Measured values reported in patent US20250230193A1, “CYCLIC COMPOUND HAVING SELECTIVE KRAS INHIBITORY EFFECT ON HRAS AND NRAS” (CHUGAI SEIYAKU KABUSHIKI KAISHA, priority 2022, published 2025).
Where a SMILES comes first, the peptide text is derived from it. Bridges are numbered along the chain shown (N, C = ends). [ ]: non-standard residue; d: D form. The star is where a group is joined. hPhe(3-Cl-4-CF3) = N[C@@H](CCc1ccc(C(F)(F)F)c(Cl)c1)C(=O)O; NMeGly(cPent) = CN[C@H](C(=O)O)C1CCCC1; NEtPhe = CCN[C@@H](Cc1ccccc1)C(=O)O; NMeD = CN[C@@H](CC(=O)O)C(=O)O; NMeL = CN[C@@H](CC(C)C)C(=O)O; Morpholide = C1CN(*)CCO1; Ac5c = NC1(C(=O)O)CCCC1; Sar = CNCC(=O)O

Tests used:
[1] = biological target: GDP-bound NRAS wild-type protein (Homo sapiens, UniProt P01111); assay: Binding to NRAS by surface plasmon resonance (SPR), Single Cycle Kinetics
[2] = biological target: GDP-bound HRAS wild-type protein (Homo sapiens, UniProt P01112); assay: Binding to HRAS by surface plasmon resonance (SPR), Single Cycle Kinetics
[3] = KD ratio, GDP-bound NRAS wild-type vs GDP-bound KRAS wild-type, SPR
[4] = KD ratio, GDP-bound HRAS wild-type vs GDP-bound KRAS wild-type, SPR
[5] = SPR, GDP-bound NRAS wild-type vs GDP-bound KRAS wild-type
[6] = SPR, GDP-bound HRAS wild-type vs GDP-bound KRAS wild-type
[7] = KD ratio NRAS/KRAS, class symbols
[8] = KD ratio HRAS/KRAS, class symbols

Chain of GDP-bound HRAS wild-type protein (P01112 whole entry): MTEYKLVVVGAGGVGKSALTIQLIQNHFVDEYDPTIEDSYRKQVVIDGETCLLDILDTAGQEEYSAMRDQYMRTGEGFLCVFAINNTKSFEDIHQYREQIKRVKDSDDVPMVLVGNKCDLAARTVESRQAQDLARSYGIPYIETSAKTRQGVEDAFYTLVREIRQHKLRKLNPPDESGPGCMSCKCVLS
Chain of GDP-bound NRAS wild-type protein (P01111 whole entry): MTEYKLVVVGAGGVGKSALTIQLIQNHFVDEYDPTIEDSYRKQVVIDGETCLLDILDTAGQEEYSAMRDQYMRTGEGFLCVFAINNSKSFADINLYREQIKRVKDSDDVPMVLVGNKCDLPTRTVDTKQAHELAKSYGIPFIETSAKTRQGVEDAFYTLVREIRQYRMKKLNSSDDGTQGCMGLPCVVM

## CCO[C@@H]1C[C@H]2C(=O)NC3(CC(F)(F)C3)C(=O)N(C)[C@@H](C3CCCC3)C(=O)N(C)[C@H](C(=O)N3CCOCC3)CC(=O)N(C)[C@@H](CC(C)C)C(=O)N[C@@H]([C@@H](C)CC)C(=O)N(C)CC(=O)N(C)[C@H]3C[C@H]4C[C@H]4CN(C3=O)[C@@H](Cc3ccc(C(F)(F)F)cc3)C(=O)N(C)CC(=O)N[C@@H](CCc3cc(F)c(C(F)(F)F)c(F)c3)C(=O)N2C1 [PP0831]
[1]; [3]
  NRAS/KRAS (ratio of KD value with respect to NRAS to KD value with respect to KRAS): C (A compound having a KD ratio of 0.1 or more and less than 3 is denoted as C)
[2]; [4]
  HRAS/KRAS (ratio of KD value with respect to HRAS to KD value with respect to KRAS): C (A compound having a KD ratio of 0.1 or more and less than 3 is denoted as C)

## CC[C@H](C)[C@@H]1NC(=O)[C@H](CC(C)C)N(C)C(=O)C[C@@H](C(=O)N2CCOCC2)N(C)C(=O)[C@H](C2CCCC2)N(C)C(=O)C2(CCCC2)NC(=O)[C@@H]2CCCN2C(=O)[C@H](CCc2ccc(C(F)(F)F)c(Cl)c2)NC(=O)CN(C)C(=O)[C@H](Cc2ccccc2)N(CC)C(=O)CN(C)C(=O)CN(C)C1=O [PP0210] ([NMeL]I[Sar][Sar][NEtPhe][Sar][hPhe(3-Cl-4-CF3)]P[Ac5c][NMeGly(cPent)][NMeD]-Morpholide; lactam N-11)
[1]; KD ratio NRAS/KRAS, SPR
  NRAS/KRAS (ratio of KD for GDP-bound NRAS wild-type to KD for KRAS): C (A compound having a KD ratio of 0.1 or more and less than 3 is denoted as C)
[2]; KD ratio HRAS/KRAS, SPR
  HRAS/KRAS (ratio of KD for GDP-bound HRAS wild-type to KD for KRAS): C (A compound having a KD ratio of 0.1 or more and less than 3 is denoted as C)

## CCC[C@H]1C(=O)N[C@@H]([C@@H](C)CC)C(=O)N(C)CC(=O)N(C)[C@H]2C/C=C\CCN(C2=O)[C@@H](Cc2ccc(C)cc2)C(=O)N(C)CC(=O)N[C@@H](CCc2cc(F)c(C(F)(F)F)c(F)c2)C(=O)N2C[C@H](OCC)C[C@H]2C(=O)N(C)C2(CCC2)C(=O)N(C)[C@@H](C2CCCC2)C(=O)N(C)[C@H](C(=O)N(C)C)CC(=O)N1C [PP1793]
[1]; [3]
  NRAS/KRAS (ratio of KD value for NRAS to KD value for KRAS): A (a compound having 10 or more and less than 20 is denoted as A)
[2]; [4]
  HRAS/KRAS (ratio of KD value for HRAS to KD value for KRAS): B (a compound having 3 or more and less than 10 is denoted as B)

## CCO[C@@H]1C[C@H]2C(=O)NC3(CC(C)(C)C3)C(=O)N(C)[C@@H](C(CC)CC)C(=O)N(C)[C@H](C(=O)N(C)C)CC(=O)N(C)[C@H]3CCCCC/C=C/c4ccc(cc4)C[C@@H](C(=O)N(C)CC(=O)N[C@@H](CCc4cc(F)c(C(F)(F)F)c(F)c4)C(=O)N2C1)N1CC/C=C\C[C@@H](C1=O)N(C)C(=O)CN(C)C(=O)[C@H]([C@@H](C)CC)NC3=O [PP3048]
[1]; KD ratio NRAS/KRAS, SPR, GDP-bound wild-type proteins
  NRAS/KRAS (ratio of KD value with respect to GDP-bound NRAS wild-type protein to KD value with respect to KRAS): A (a compound having 10 or more and less than 20 is denoted as A)
[2]; KD ratio HRAS/KRAS, SPR, GDP-bound wild-type proteins
  HRAS/KRAS (ratio of KD value with respect to GDP-bound HRAS wild-type protein to KD value with respect to KRAS): A (a compound having 10 or more and less than 20 is denoted as A)

## CCO[C@@H]1C[C@H]2C(=O)NC3(CC(C)(C)C3)C(=O)N(C)[C@@H](C(CC)CC)C(=O)N(C)[C@H](C(=O)N(C)C)CC(=O)N(C)[C@@H](COC)C(=O)N[C@@H]([C@@H](C)CC)C(=O)N(C)CC(=O)N(C)[C@H]3C/C=C\CCN(C3=O)[C@@H](CC3CCC(F)(F)CC3)C(=O)N(C)CC(=O)N[C@@H](CCc3cc(F)c(C(F)(F)F)c(F)c3)C(=O)N2C1 [PP2440]
[1]; [5]
  NRAS/KRAS (ratio of KD value with respect to NRAS to KD value with respect to KRAS): A (a compound having 10 or more and less than 20 is denoted as A)
[2]; [6]
  HRAS/KRAS (ratio of KD value with respect to HRAS to KD value with respect to KRAS): A (a compound having 10 or more and less than 20 is denoted as A)

## CCCC[C@H]1C(=O)N[C@@H]([C@@H](C)CC)C(=O)N(C)CC(=O)N(C)[C@H]2C/C=C\CCN(C2=O)[C@@H](Cc2ccc(C)cc2)C(=O)N(C)CC(=O)N[C@@H](CCc2cc(F)c(C(F)(F)F)c(F)c2)C(=O)N2C[C@H](OCC)C[C@H]2C(=O)NC2(CC(C)(C)C2)C(=O)N(C)[C@@H](C2CCCC2)C(=O)N(C)[C@H](C(=O)N(C)CC)CC(=O)N1C [PP2808]
[1]; [7]
  NRAS/KRAS (ratio of KD value with respect to GDP-bound NRAS wild-type protein to KD value with respect to KRAS): B (a compound having 3 or more and less than 10 is denoted as B)
[2]; [8]
  HRAS/KRAS (ratio of KD value with respect to GDP-bound HRAS wild-type protein to KD value with respect to KRAS): B (a compound having 3 or more and less than 10 is denoted as B)

## CCCO[C@H](C)[C@@H]1NC(=O)[C@H](CC(C)C)N(C)C(=O)C[C@@H](C(=O)N(C)CC)N(C)C(=O)[C@H](C2CCCC2)N(C)C(=O)C2(CC(C)(C)C2)NC(=O)[C@@H]2C[C@H](C)CN2C(=O)[C@H](CCc2ccc(C(F)(F)F)c(OC)c2)NC(=O)CN(C)C(=O)[C@H](Cc2ccc(C)cc2)N2CC/C=C\C[C@@H](C2=O)N(C)C(=O)CN(C)C1=O [PP2416]
[1]; [5]
  NRAS/KRAS (ratio of KD value with respect to NRAS to KD value with respect to KRAS): A (a compound having 10 or more and less than 20 is denoted as A)
[2]; [6]
  HRAS/KRAS (ratio of KD value with respect to HRAS to KD value with respect to KRAS): B (a compound having 3 or more and less than 10 is denoted as B)

## CCC[C@H]1C(=O)N[C@@H]([C@@H](C)CC)C(=O)N(C)CC(=O)N(C)[C@H]2C/C=C\CCN(C2=O)[C@@H](Cc2ccc(C(F)(F)F)cc2)C(=O)N(C)CC(=O)N[C@@H](CCc2ccc(Cl)c(Cl)c2)C(=O)N2C[C@H](OCC)C[C@H]2C(=O)NC2(CC(C)(C)C2)C(=O)N(C)[C@@H](CC2CCC2)C(=O)N(C)[C@H](C(=O)N(C)C)CC(=O)N1C [PP2766]
[1]; [7]
  NRAS/KRAS (ratio of KD value with respect to GDP-bound NRAS wild-type protein to KD value with respect to KRAS): A (a compound having 10 or more and less than 20 is denoted as A)
[2]; [8]
  HRAS/KRAS (ratio of KD value with respect to GDP-bound HRAS wild-type protein to KD value with respect to KRAS): A (a compound having 10 or more and less than 20 is denoted as A)

## CCC(CC)[C@H]1C(=O)N(C)[C@H](C(=O)N(C)C)CC(=O)N(C)[C@@H](COC)C(=O)N[C@@H]([C@@H](C)CC)C(=O)N(C2CC2)CC(=O)N(C)[C@H]2C/C=C\CCN(C2=O)[C@@H](Cc2ccc(C)cc2)C(=O)N(C)CC(=O)N[C@@H](CCc2ccc(Cl)c(Cl)c2)C(=O)N2C[C@H](OC(C)C)C[C@H]2C(=O)NC2(CC(C)(C)C2)C(=O)N1C (stereo in doubt) [PP2509]
[1]; [5]
  NRAS/KRAS (ratio of KD value with respect to NRAS to KD value with respect to KRAS): AA (a compound having 20 or more is denoted as AA)
[2]; [6]
  HRAS/KRAS (ratio of KD value with respect to HRAS to KD value with respect to KRAS): A (a compound having 10 or more and less than 20 is denoted as A)

## CC[C@H](C)[C@@H]1NC(=O)[C@H](CC2CC2)N(C)C(=O)C[C@@H](C(=O)N(C)C)N(C)C(=O)[C@H](C2CCCC2)N(C)C(=O)C2(CCC2)NC(=O)[C@@H]2[C@@H](OCC(F)F)CCN2C(=O)[C@H](CCc2cc(F)c(C(F)(F)F)c(F)c2)NC(=O)CN(C)C(=O)[C@H](Cc2ccc(C(F)(F)F)cc2)N2CC/C=C\C[C@@H](C2=O)N(C)C(=O)CN(C)C1=O [PP1533]
[1]; SPR, KD ratio class
  NRAS/KRAS (ratio of KD value for GDP-bound NRAS wild-type protein to KD value for KRAS): AA (a compound having 20 or more is denoted as AA)
[2]; SPR, KD ratio class
  HRAS/KRAS (ratio of KD value for GDP-bound HRAS wild-type protein to KD value for KRAS): A (a compound having 10 or more and less than 20 is denoted as A)

## CCC[C@H]1C(=O)N[C@@H]([C@@H](C)CC)C(=O)N(C)CC(=O)N(C)[C@H]2C/C=C\CCN(C2=O)[C@@H](Cc2ccc(C(F)F)cc2)C(=O)N(C)CC(=O)N[C@@H](CCc2ccc(Cl)c(Cl)c2)C(=O)N2C[C@H](OC3CCC3)C[C@H]2C(=O)NC2(CC(C)(C)C2)C(=O)N(C)[C@@H](C(CC)CC)C(=O)N(C)[C@H](C(=O)N(C)C)CC(=O)N1C [PP2643]
[1]; [7]
  NRAS/KRAS (ratio of KD value with respect to GDP-bound NRAS wild-type protein to KD value with respect to KRAS): AA (a compound having 20 or more is denoted as AA)
[2]; [8]
  HRAS/KRAS (ratio of KD value with respect to GDP-bound HRAS wild-type protein to KD value with respect to KRAS): A (a compound having 10 or more and less than 20 is denoted as A)

## CCCCN1CC(=O)NC2(CCC2)C(=O)N(C)[C@@H](C2CCCC2)C(=O)N(C)[C@H](C(=O)N(C)C)CC(=O)N(C)[C@@H](CC)C(=O)N[C@@H]([C@@H](C)CC)C(=O)N(C)CC(=O)N(C)[C@H]2C/C=C\CCN(C2=O)[C@@H](Cc2ccc(C(F)(F)F)cc2)C(=O)N(C)CC(=O)N[C@@H](CCc2cc(F)c(C(F)(F)F)c(F)c2)C1=O [PP1142]
[1]; [3]
  NRAS/KRAS (ratio of KD value with respect to NRAS to KD value with respect to KRAS): A (a compound having 10 or more and less than 20 is denoted as A)
[2]; [4]
  HRAS/KRAS (ratio of KD value with respect to HRAS to KD value with respect to KRAS): A (a compound having 10 or more and less than 20 is denoted as A)

## CCO[C@@H]1C[C@H]2C(=O)NC3(CCC3)C(=O)N(C)[C@@H](C3CCCC3)C(=O)N(C)[C@H](C(=O)N3CCOCC3)CC(=O)N(C)[C@@H](COC)C(=O)N[C@@H]([C@@H](C)CC)C(=O)N(C)CC(=O)N(C)[C@H]3CCCCN(C3=O)[C@@H](Cc3ccc(C(F)(F)F)cc3)C(=O)N(C)CC(=O)N[C@@H](CCc3cc(F)c(C(F)(F)F)c(F)c3)C(=O)N2C1 [PP0719]
[1]; KD ratio NRAS/KRAS, SPR
  NRAS/KRAS (ratio of KD value with respect to GDP-bound NRAS wild-type protein to KD value with respect to KRAS): C (A compound having a KD ratio of 0.1 or more and less than 3 is denoted as C)
[2]; KD ratio HRAS/KRAS, SPR
  HRAS/KRAS (ratio of KD value with respect to GDP-bound HRAS wild-type protein to KD value with respect to KRAS): B (a compound having 3 or more and less than 10 is denoted as B)

## CCO[C@@H]1C[C@H]2C(=O)NC3(CCC3)C(=O)N(C)[C@@H](C3CCCC3)C(=O)N(C)[C@H](C(=O)N3CCOCC3)CC(=O)N(C)[C@@H](CC3CCCCC3)C(=O)N[C@@H]([C@@H](C)CC)C(=O)N(C)CC(=O)N(C)[C@H]3CCCCN(C3=O)[C@@H](Cc3ccc(C(F)(F)F)cc3)C(=O)N(C)CC(=O)N[C@@H](CCc3cc(F)c(C(F)(F)F)c(F)c3)C(=O)N2C1 [PP0716]
[1]; KD ratio NRAS/KRAS, SPR
  NRAS/KRAS (ratio of KD value with respect to GDP-bound NRAS wild-type protein to KD value with respect to KRAS): C (A compound having a KD ratio of 0.1 or more and less than 3 is denoted as C)
[2]; KD ratio HRAS/KRAS, SPR
  HRAS/KRAS (ratio of KD value with respect to GDP-bound HRAS wild-type protein to KD value with respect to KRAS): B (a compound having 3 or more and less than 10 is denoted as B)
